US9113629B2, “4-amino-6-(4-substituted-phenyl)-picolinates and 6-amino-2-(4-substituted-phenyl)-pyrimidine-4-carboxylates and their use as herbicides” (DOW AGROSCIENCES LLC, priority 2013, dated 2015)

How the values were obtained:
Experiment in all cases: Pre-emergent Test III, preemergent activity in wheat and barley
[1] = tested on: HORSS; assay type: in vivo, Hordeum vulgare; conditions: for GR20 HORSS: 21 days after application, dose to kill or control 20%, probit analysis
Protocol: (§1) Pre-emergent Test III. Seeds of test species were planted into square plastic pots (10 cm wide) containing sandy loam soil. After planting, all pots were sub-irrigated 16 h prior to compound application. A weighed amount, determined by the highest rate to be tested, of each test compound was placed in a 25 mL glass vial and was dissolved in 4 mL of a 97:3 v/v mixture of acetone and DMSO to obtain concentrated stock solutions. […] The concentrated stock solutions obtained were diluted with 20 mL of an aqueous mixture containing water and 0.02% w/v (weight/volume) of Triton X-155 to obtain spray solutions containing the highest application rates. Additional application rates were obtained by serial dilution of 12 mL of the high rate solution into a solution containing 2 mL of 97:3 v/v mixture of acetone and DMSO and 10 mL of an aqueous mixture containing water and 0.02% w/v (weight/volume) of Triton X-155 to obtain 1⁄2×, 1⁄4×, 1⁄8× and 1/16× rates of the high rate. Compound requirements are based upon a 12 mL application volume at a rate of 187 liters per hectare (L/ha). Formulated compounds were applied to the soil surface with an overhead Mandel track sprayer equipped with […] nozzles calibrated to deliver 187 L/ha over an application area of 0.503 square meters. Control pots were sprayed in the same manner with the solvent blank. The treated pots and control pots were placed in a greenhouse as described above and watered through surface irrigation. After 21 d, the condition of the test pots as compared with that of the untreated pots was determined visually and scored on a scale of 0 to 100 percent where 0 corresponds to no herbicidal effect and 100 corresponds to plant death or lack of emergence from the soil. By applying the well-accepted probit analysis as described by J. Berkson in Journal of the American Statistical Society, 48, 565 (1953) and by D. Finney in “Probit Analysis” Cambridge University Press (1952), the above data can be used to calculate GR20, GR50, GR80 and GR90 values, which are defined as growth reduction factors that correspond to the effective dose of herbicide required to kill or control 20 percent, 50 percent, 80 percent or 90 percent, respectively, of a target plant.

[2] = tested on: SETVI; assay type: in vivo, Setaria viridis; conditions: for GR50 SETVI / GR80 SETVI: 21 days after application, probit analysis; for GR50 SETVI: dose to kill or control 50%; for GR80 SETVI: dose to kill or control 80%
Protocol: as §1

[3] = tested on: LOLSS; assay type: in vivo, Lolium multiflorum, Lolium rigidum; conditions: for GR50 LOLSS / GR80 LOLSS: 21 days after application, probit analysis; for GR50 LOLSS: dose to kill or control 50%; for GR80 LOLSS: dose to kill or control 80%
Protocol: as §1

[4] = tested on: LAMSS; assay type: in vivo; conditions: for GR50 LAMSS / GR80 LAMSS: 21 days after application, probit analysis; for GR50 LAMSS: dose to kill or control 50%; for GR80 LAMSS: dose to kill or control 80%
Protocol: as §1

[5] = tested on: TRZSS; assay type: in vivo, Triticum aestivum; conditions: for GR20 TRZSS: 21 days after application, dose to kill or control 20%, probit analysis
Protocol: as §1

[6] = tested on: APESV; assay type: in vivo, Apera spica-venti; conditions: for GR50 APESV / GR80 APESV: 21 days after application, probit analysis; for GR50 APESV: dose to kill or control 50%; for GR80 APESV: dose to kill or control 80%
Protocol: as §1

Row | SMILES | Visual Growth Reduction (%) 21 Days After Application, HORSS ([1]; 35 g ai/ha) | Visual Growth Reduction (%) 21 Days After Application, HORSS ([1]; 70 g ai/ha) | GR20 HORSS [1] [g ai/ha] | Visual Growth Reduction (%) 21 Days After Application, SETVI ([2]; 35 g ai/ha) | Visual Growth Reduction (%) 21 Days After Application, SETVI ([2]; 70 g ai/ha) | GR50 SETVI [2] [g ai/ha] | GR80 SETVI [2] [g ai/ha] | Visual Growth Reduction (%) 21 Days After Application, LOLSS ([3]; 35 g ai/ha) | Visual Growth Reduction (%) 21 Days After Application, LOLSS ([3]; 70 g ai/ha) | GR50 LOLSS [3] [g ai/ha] | GR80 LOLSS [3] [g ai/ha] | Visual Growth Reduction (%) 21 Days After Application, LAMSS ([4]; 35 g ai/ha) | Visual Growth Reduction (%) 21 Days After Application, LAMSS ([4]; 70 g ai/ha) | GR50 LAMSS [4] [g ai/ha] | GR80 LAMSS [4] [g ai/ha] | Visual Growth Reduction (%) 21 Days After Application, TRZSS ([5]; 35 g ai/ha) | Visual Growth Reduction (%) 21 Days After Application, TRZSS ([5]; 70 g ai/ha) | GR20 TRZSS [5] [g ai/ha] | Visual Growth Reduction (%) 21 Days After Application, APESV ([6]; 35 g ai/ha) | Visual Growth Reduction (%) 21 Days After Application, APESV ([6]; 70 g ai/ha) | further results
1 | Nc1c(F)c(-c2cc(F)c(Br)cc2F)nc(C(=O)O)c1Cl [Compound 42, 4-amino-6-(4-bromo-2,5-difluorophenyl)-3-chloro-5-fluoropicolinic acid] | F (30-44) | E (45-59) | 11 | E (45-59) | D (60-74) | 36 | >70 | G (0-29) | G (0-29) | >70 | >70 | A (95-100) | A (95-100) | 1 | 1 | E (45-59) | E (45-59) | 5 | B (85-94) | A (95-100) | GR50 APESV [6]: 12 g ai/ha; GR80 APESV [6]: 27 g ai/ha
2 | C=Cc1c(C(=O)O)nc(-c2ccc(Cl)c(F)c2)c(F)c1N [Compound 214] | G (0-29) | G (0-29) | 93 | G (0-29) | G (0-29) | >70 | >70 | G (0-29) | E (45-59) | >70 | >70 | A (95-100) | A (95-100) | 1 | 2 | G (0-29) | F (30-44) | 28 | C (75-84) | A (95-100) | GR50 APESV [6]: 13 g ai/ha; GR80 APESV [6]: 28 g ai/ha
3 | Nc1c(F)c(-c2ccc(Br)c(F)c2F)nc(C(=O)O)c1Cl [Compound 147] | G (0-29) | G (0-29) | 70 | E (45-59) | C (75-84) | 17 | >70 | G (0-29) | G (0-29) | 52 | >70 | A (95-100) | A (95-100) | 1 | 5 | F (30-44) | F (30-44) | 23 | C (75-84) | B (85-94) | GR50 APESV [6]: 19 g ai/ha; GR80 APESV [6]: 33 g ai/ha
4 | Nc1c(F)c(-c2ccc(Br)cc2)nc(C(=O)O)c1Cl [Compound 20] | F (30-44) | E (45-59) | 17 | F (30-44) | B (85-94) | 32 | 71 | G (0-29) | E (45-59) | >70 | >70 | A (95-100) | A (95-100) | 6 | 9 | E (45-59) | E (45-59) | 10 | A (95-100) | A (95-100) | GR50 APESV [6]: 6 g ai/ha; GR80 APESV [6]: 16 g ai/ha
